Assays:
Bmi-1 = experiment: Sandwich ELISA Assay (Bmi-1 ELISA) in HT-1080 cells; type: cell-based
In short: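 HT-1080 cells exposed to compound in 0.5% final DMSO for 40-48 h at 37 °C, then lysed. Bmi-1 was quantified by sandwich ELISA: mouse monoclonal capture, rabbit anti-Bmi-1 detection, HRP anti-rabbit and TMB. Read at OD450 (OD570 reference) against a recombinant GST-Bmi-1 standard curve (0-8000 pg/mL).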

Row | Structure (SMILES) | EC50 (Bmi-1) [nM] | melting point [°C]
1 | Cc1nc2ccc(F)cn2c1-c1nc(N)c(F)c(Nc2ccc(Cl)cc2)n1 [Cpd 251, N-(4-chlorophenyl)-5-fluoro-2-(6-fluoro-2-methylimidazo[1,2-a]pyridin-3-yl)pyrimidine-4,6-diamine] | 100 to 3000 | 226 to 229
2 | CCc1nc2ccc(F)cc2n1-c1nc(N)cc(Nc2ccc(OC(F)F)c(F)c2)n1 [Cpd 77, N-[4-(difluoromethoxy)-3-fluorophenyl]-2-(2-ethyl-6-fluoro-1H-benzimidazol-1-yl)pyrimidine-4,6-diamine] | 10 to 100 | 156 to 158
3 | Cc1cn2c(-c3nc(N)c(F)c(Nc4ccc(OC(F)F)cc4)n3)c(C)nc2c(C)n1 [Cpd 175, N-[4-(difluoromethoxy)phenyl]-5-fluoro-2-(2,6,8-trimethylimidazo[1,2-a]pyrazin-3-yl)pyrimidine-4,6-diamine] | 100 to 3000 | 141 to 143
4 | Nc1cc(Nc2ccc(OC(F)F)cc2)nc(-n2c(C3CC3)nc3ccc(F)cc32)n1 [Cpd 143, 2-(2-cyclopropyl-6-fluoro-1H-benzimidazol-1-yl)-N-[4-(difluoromethoxy)phenyl]pyrimidine-4,6-diamine] | 1 to 10 | 175 to 177
5 | Cc1nc2ccccc2n1-c1nc(N)cc(Nc2ccc3c(c2)OC(F)(F)O3)n1 [Cpd 206, N-(2,2-difluoro-1,3-benzodioxol-5-yl)-2-(2-methyl-1H-benzimidazol-1-yl)pyrimidine-4,6-diamine] | 10 to 100 | 141 to 142
6 | Cc1nc2ncc(F)cn2c1-c1nc(N)cc(Nc2ccc(C(F)(F)F)cc2)n1 [Cpd 100, 2-(6-fluoro-2-methylimidazo[1,2-a]pyrimidin-3-yl)-N-[4-(trifluoromethyl)phenyl]pyrimidine-4,6-diamine] | 100 to 3000 | 256 to 258
7 | Cc1nc2ccc(F)cc2n1-c1nc(N)cc(Nc2ccc(Cl)cc2)n1 [Cpd 263, N-(4-chlorophenyl)-2-(6-fluoro-2-methyl-1H-benzimidazol-1-yl)pyrimidine-4,6-diamine] | 10 to 100 | 183 to 185
8 | Cc1nc2ccccc2n1-c1nc(N)cc(Nc2ccc3c(c2)OCO3)n1 [Cpd 205, N-(1,3-benzodioxol-5-yl)-2-(2-methyl-1H-benzimidazol-1-yl)pyrimidine-4,6-diamine] | 1 to 10 | 166 to 167
9 | Nc1cc(Nc2ccc(OC(F)(F)F)cc2)nc(-c2c(C(F)(F)F)nc3ccccn23)n1 [Cpd 67, N-[4-(trifluoromethoxy)phenyl]-2-[2-(trifluoromethyl]imidazo[1,2-a]pyridin-3-yl]pyrimidine-4,6-diamine] | 100 to 3000 | 199 to 202
10 | CCc1nc2ccc(F)cc2n1-c1nc(N)cc(Nc2ccc(OC(F)F)cc2)n1 [Cpd 144, N-[4-(difluoromethoxy)phenyl]-2-(2-ethyl-6-fluoro-1H-benzimidazol-1-yl)pyrimidine-4,6-diamine] | 10 to 100 | 166 to 168
11 | Nc1nc(-n2c(C3CC3)nc3ccccc32)nc(Nc2ccc(Cl)c(F)c2)c1F [Cpd 280, N-(4-chloro-3-fluorophenyl)-2-(2-cyclopropyl-1H-benzimidazol-1-yl)-5-fluoropyrimidine-4,6-diamine] | 10 to 100 | –
12 | COc1ccc(Nc2ccnc(-n3c(C(F)(F)F)nc4ccccc43)n2)cc1Cl [Cpd 42, N-(3-chloro-4-methoxyphenyl)-2-[2-(trifluoromethyl)-1H-benzimidazol-1-yl]pyrimidin-4-amine] | 10 to 100 | –
13 | COc1ccc(Nc2ccnc(-c3c(C)nc4ccccn34)n2)cc1 [Cpd 4, N-(4-methoxyphenyl)-2-(2-methylimidazo[1,2-a]pyridin-3-yl)pyrimidin-4-amine] | 10 to 100 | –
14 | CC1(c2nc3ccccc3n2-c2nc(N)cc(Nc3ccc(OC(F)F)cc3)n2)CC1 [Cpd 148, N-[4-(difluoromethoxy)phenyl]-2-[2-(1-methylcyclopropyl)-1H-benzimidazol-1-yl]pyrimidine-4,6-diamine] | 100 to 3000 | –
15 | Cc1nc2ccccc2n1-c1nccc(Nc2ccc(OC(F)F)cc2)n1 [Cpd 61, N-[4-(difluoromethoxy)phenyl]-2-(2-methyl-1H-benzimidazol-1-yl)pyrimidin-4-amine] | 100 to 3000 | –
16 | COc1ccc(Nc2ccnc(-c3c(C(F)(F)F)nc4ccccn34)n2)cc1F [Cpd 34, N-(3-fluoro-4-methoxyphenyl)-2-[2-(trifluoromethyl)imidazo[1,2-a]pyridin-3-yl]pyrimidin-4-amine] | 1 to 10 | –
17 | FC(F)(F)c1nc2ccccn2c1-c1nccc(Nc2ccc3c(c2)OCCO3)n1 [Cpd 29, N-(2,3-dihydro-1,4-benzodioxin-6-yl)-2-[2-(trifluoromethyl)imidazo[1,2-a]pyridin-3-yl]pyrimidin-4-amine] | 10 to 100 | –
18 | Cc1nc2cc(F)c(F)cc2n1-c1nc(N)c(F)c(Nc2ccc(C(F)(F)F)cc2)n1 [Cpd 125, 2-(5,6-difluoro-2-methyl-1H-benzimidazol-1-yl)-5-fluoro-N-[4-(trifluoromethyl)phenyl]pyrimidine-4,6-diamine] | 100 to 3000 | –
19 | Cc1ccc(Nc2ccnc(-c3c(C(F)(F)F)nc4cnccn34)n2)cc1 [Cpd 62, N-(4-methylphenyl)-2-[2-(trifluoromethyl)imidazo[1,2-a]pyrazin-3-yl]pyrimidin-4-amine] | 10 to 100 | –
20 | Cc1nc2ccc(C#N)cc2n1-c1nc(N)c(F)c(Nc2ccc(OC(F)F)cc2)n1 [Cpd 223, 1-(4-amino-6-{[4-(difluoromethoxy)phenyl]amino}-5-fluoropyrimidin-2-yl)-2-methyl-1H-benzimidazole-6-carbonitrile] | 100 to 3000 | –
21 | CCc1nc2ccccc2n1-c1nc(N)c(F)c(Nc2ccc(OC(F)F)cc2)n1 [Cpd 123, N-[4-(difluoromethoxy)phenyl]-2-(2-ethyl-1H-benzimidazol-1-yl)-5-fluoropyrimidine-4,6-diamine] | 1 to 10 | –
22 | CCc1nc2ccccc2n1-c1nc(N)c(Cl)c(Nc2ccc(OC(F)F)cc2)n1 [Cpd 168, 5-chloro-N-[4-(difluoromethoxy)phenyl]-2-(2-ethyl-1H-benzimidazol-1-yl)pyrimidine-4,6-diamine] | 100 to 3000 | –
23 | Nc1nc(-c2c(C3CC3)nn3ccccc23)nc(Nc2ccc(OC(F)F)cc2)c1F [Cpd 180, 2-(2-cyclopropylpyrazolo[1,5-a]pyridin-3-yl)-N-[4-(difluoromethoxy)phenyl]-5-fluoropyrimidine-4,6-diamine] | 100 to 3000 | –
24 | Cc1nc2c(F)cc(F)cc2n1-c1nc(N)c(F)c(Nc2ccc(OC(F)F)c(F)c2)n1 [Cpd 128, N-[4-(difluoromethoxy)-3-fluorophenyl]-2-(4,6-difluoro-2-methyl-1H-benzimidazol-1-yl)-5-fluoropyrimidine-4,6-diamine] | 10 to 100 | –
25 | Cc1nc2ccccc2n1-c1nc(N)c(F)c(Nc2ccc(Cl)cc2)n1 [Cpd 201, N-(4-chlorophenyl)-5-fluoro-2-(2-methyl-1H-benzimidazol-1-yl)pyrimidine-4,6-diamine] | 10 to 100 | –
26 | Cc1cc2nc(C)n(-c3nc(N)cc(Nc4ccc(C(F)(F)F)cc4)n3)c2cc1C [Cpd 79, N-[4-(trifluoromethyl)phenyl]-2-(2,5,6-trimethyl-1H-benzimidazol-1-yl)pyrimidine-4,6-diamine] | 100 to 3000 | –

— patent publication US11180483B2, “Substituted reverse pyrimidine Bmi-1 inhibitors” (PTC Therapeutics, Inc., priority 2012, dated 2021)
